Experimental data taken from patent US20240092795A1, “PYRIDINE COMPOUNDS AS ALLOSTERIC SHP2 INHIBITORS” (Revolution Medicines, Inc., priority 2017, published 2024).

These compounds were tested against SHP2 (Homo sapiens (Human), UniProt Q06124) (assay: SHP2 Allosteric Inhibition Assay (DiFMUP prompt fluorescence)). Settings: 0.2 nM SHP2 with 0.5 μM Activating Peptide 1 or 2, surrogate substrate DiFMUP, 25° C.; read-out: SHP2 Allosteric Biochem: IC50.
Assay type: biochemical
Excerpt: Without wishing to be bound by theory, SHP is allosterically activated through binding of bis-tyrosyl-phosphorylated peptides to its Src Homology 2 (SH2) domains. The latter activation step leads to the release of the auto-inhibitory interface of SHP2, which in turn renders the SHP2 protein tyrosine phosphatase (PTP) active and available for substrate recognition and reaction catalysis. The catalytic activity of SHP2 was monitored using the surrogate substrate DiFMUP in a prompt fluorescence assay format.
The phosphatase reactions were performed at room temperature in 96-well black polystyrene plate, flat bottom, non-binding surface (Corning, Cat #3650) using a final reaction volume of 100 μL and the following assay buffer conditions: 50 mM HEPES, pH 7.2, 100 mM NaCl, 0.5 mM EDTA, 0.05% P-20, 1 mM DTT.
The inhibition of SHP2 by compounds of the disclosure (concentrations varying from 0.00005-10 μM) was monitored using an assay in which 0.2 nM of SHP2 was incubated with 0.5 μM of Activating Peptide 1 (sequence: H2N-LN(pY)IDLDLV(dPEG8)LST (pY)ASINFQK-amide) or Activating Peptide 2 (sequence: H2N-LN(pY)AQLWHA(dPEG8) LTI(pY)ATIRRF-amide). After 30-60-minutes incubation at 25° C., the surrogate substrate DiFMUP (Invitrogen, Cat #D6567) was added to the reaction and activity was determined by a kinetic read using a microplate reader (Envision, Perkin-Elmer or Spectramax M5, Molecular Devices). The excitation and emission wavelengths were 340 nm and 450 nm, respectively. Initial rates were determined from a linear fit of the data, and the inhibitor dose response curves were analyzed using normalized ICso regression curve fitting with control based normalization.

SMILES | IC50
N[C@@H]1CCCC12CCN(c1cc(O)c(-c3cccc(Cl)c3Cl)nc1CO)CC2 [Example 1, 5-[(4R)-4-amino-8-azaspiro[4.5]decan-8-yl]-2-(2,3-dichlorophenyl)-6-(hydroxymethyl)pyridin-3-ol] | 210 nM
N[C@@H]1CCCC12CCN(c1cc(O)c(Sc3cccc(Cl)c3Cl)nc1CO)CC2 [Example 2, 5-[(1R)-1-amino-8-azaspiro[4.5]decan-8-yl]-2-[(2,3-dichlorophenyl)sulfanyl]-6-(hydroxymethyl)pyridin-3-ol] | 37 nM
N[C@@H]1CCCC12CCN(c1cnc(-c3cccc(Cl)c3Cl)c(O)c1)CC2 [Example 3, 5-[(1R)-1-amino-8-azaspiro[4.5]decan-8-yl]-2-(2,3-dichlorophenyl)pyridin-3-ol] | 740 nM

Continued, values first:

IC50 | SMILES
69 nM | Cc1cc(N2CCC3(CCC[C@H]3N)CC2)c(CO)nc1-c1cccc(Cl)c1Cl [Example 4, {3-[(1R)-1-amino-8-azaspiro[4.5]decan-8-yl]-6-(2,3-dichlorophenyl)-5-methylpyridin-2-yl}methanol]
210 nM | Cc1cc(N2CCC3(CCC[C@H]3N)CC2)cnc1-c1cccc(Cl)c1Cl [Example 5, (1R)-8-[6-(2,3-dichlorophenyl)-5-methylpyridin-3-yl]-8-azaspiro[4.5]decan-1-amine]
